Source: patent US20250281433A1, “NOVEL DERIVATIVE COMPOUND HAVING BIPHENYL GROUP INTRODUCED INTO AMINO-ALKANOIC ACID AND ANTI-INFLAMMATORY COMPOSITION COMPRISING SAME” (AMTIXBIO CO., LTD., priority 2020, published 2025)

What was measured:
[1] = tested on: IL-6 production in RAW264.7 cells; assay: LPS-induced IL-6 production in RAW264.7 cells (ELISA); assay type: cell-based, mouse; settings: for Relative amount of IL-6 compared to LPS induction (%): Table 3, compounds at 8 μg/mL (FIG. 1), LPS alone = 100%; for avg / 1 well / 2 well / avg (%): Table 2; for avg / 1 well / 2 well: IL-6 production after LPS; for avg: average of wells; for 1 well: replicate well 1; for 2 well: replicate well 2; for avg (%): relative to LPS (100%)
Procedure: The inhibitory effect on induced IL-6 cytokine production was analyzed. RAW264.7 cells (obtained from the Korean Cell Line Bank) were seeded at a density of 5×10^5 cells/well in a 12-well plate and stabilized in a CO2 incubator at 37° C. with 5% carbon dioxide and saturated humidity. After 24 hours of incubation, the compounds of the present invention were prepared in DMEM at concentrations of 0 μg/mL or 8 μg/mL and pre-treated for 30 minutes. Next, lipopolysaccharide (LPS, Sigma-Aldrich, Cat No. L2887) was treated to a concentration of 1 μg/mL to induce an inflammatory response for 24 hours. Subsequently, mouse IL-6 ELISA kit (Labiskoma, Cat No. K0331230P) and mouse TNF-α ELISA kit (Labiskoma, Cat No. K0331186P) were used according to the manufacturer's instructions, and absorbance was measured. FK506 (FK-506 monohydrate, manufacturer: MilliporeSigma, product number: F4679, U.S.A) was used as a control substance.
After inducing inflammation as described in (1) and (2) above, the supernatant was collected, and the quantification of IL-6 in the supernatant was performed using the IL-6 ELISA kit (Mouse IL-6 ELISA Kit, pink-ONE, manufactured by Komabiotech, Product No. K0331230P) according to the manufacturer's instructions. Specifically, the amount of IL-6 in the supernatant was quantified according to the ELISA kit protocol, and the absorbance was measured at OD 450 nm using a microplate reader (Multiskan Sky, manufactured by Thermo Fisher Scientific). […] In Table 1 to Table 3, FIG. 1, and FIG. 2, the relative values of IL-6 generated after pretreatment with the compounds of the present invention were expressed as a percentage relative to the IL-6 production (100%) induced by LPS, TNF-α, or IFN-β treatment.

[2] = tested on: psoriasis symptoms induced by Aldara cream in BALB/c mice; assay: Aldara cream-induced mouse psoriasis model: skin lesions / PASI score; assay type: in vivo; settings: topical 150 μl for 4 days from 4th day, Compound 51 1%, Betamethasone 0.05%, versus Veh; for skin lesions (pictures, visual): 8th day; for PASI Score: p<0.001
Procedure: (§1) After dissolving the test substance (Compound 51 of the present invention) using DMSO (Dimethyl sulfoxide, Sigma, Cat No. 472301), an appropriate concentration was prepared with PBS (HyClone, Cat No. SH30028.02). The transdermal test substance was prepared by dissolving the test substance in 100% ethanol (Medchem, Cat No. HY-13571). Betamethasone dipropionate (Sigma, Cat No. D1756, Lot No. BCBW7684), a positive control, was dissolved in DMSO, and PEG400 (Sigma, Cat. No. 06855) and 30% ethanol (Daejung, Cat. No. 4023-4100) were added to the mixture obtained above. The same vehicle was used for the negative control in the same way as the positive control specimen preparation.
BALB/c mice (purchased through JA BIO, 27 males, 8 weeks old) were acclimatized for one week. After the mice were anesthetized with isoflurane 3 days before the application of Aldara cream, the hair on the back (3×3 cm) was removed using a clipper. The remaining hair was completely removed by leaving the hair removal cream for 1 minute. The mice were left for 72 hours to heal the wounds. To induce psoriasis, Aldera Cream (5% Imiquimod, Dong-A ST) 62.5 mg was applied at the same time point (AM 10:00) once/day 7 times, and 150 μl of test substance or positive control was applied from the 4th day at the same time point (PM 14:00) for 4 days. The composition of each test group was as follows. a) Con: Normal+excipient application group: 8 animals; b) Veh: Aldara cream+excipient application group: 8 animals; c) Beta: Aldara+Betamethasone 0.05% applied group: 8 animals; and d) Compound 51 1%: Aldara+Compound 51 1% application group: 3 animals. The autopsy proceeded in a non-fasting state, and the dorsal skin was removed from each mouse, rapidly frozen in liquid nitrogen, and stored at −80° C. before for the subsequent experiments.
After taking pictures on the 0th, 4th, and 8th days to measure the skin index values, they were visually observed and recorded to measure the degree of skin lesions on the dorsal area. The condition of psoriasis skin lesions in each group was scored according to the evaluation index (erythema, skin thickness, dead skin cells) as None (0), Weak (1), Moderate (2), Severe (3), Very Severe (4) and set the score, and by summing up the scores of the three items, an evaluation score between a minimum of 0 and a maximum of 12 was calculated. […] After taking pictures in all groups on the 0th, 4th and 8th days, the evaluation indexes (erythema, skin thickness, and dead skin cells) of the psoriasis skin lesions in each group were graphed.

[3] = tested on: psoriasis symptoms induced by Aldara cream in BALB/c mice; assay: Aldara cream-induced mouse psoriasis model: evaluation of scratching; assay type: in vivo; settings: 8th day; topical; Compound 51 1%, Betamethasone 0.05%; versus Veh
Procedure: as §1
(§2) BALB/c mice (purchased through JA BIO, 27 males, 8 weeks old) were acclimatized for one week. After the mice were anesthetized with isoflurane 3 days before the application of Aldara cream, the hair on the back (3×3 cm) was removed using a clipper. The remaining hair was completely removed by leaving the hair removal cream for 1 minute. The mice were left for 72 hours to heal the wounds. To induce psoriasis, Aldera Cream (5% Imiquimod, Dong-A ST) 62.5 mg was applied at the same time point (AM 10:00) once/day 7 times, and 150 μl of test substance or positive control was applied from the 4th day at the same time point (PM 14:00) for 4 days. […]

[4] = tested on: psoriasis-related cytokine genes IL-17A, IL-17F, IL-23A (p19), IL-12A (p35), IL-12B (p40), IL-1β; assay: Aldara cream-induced mouse psoriasis model: qRT-PCR of dorsal skin; assay type: in vivo; settings: dorsal skin RNA, normalized to 18s rRNA; topical; Compound 51 1%, Betamethasone 0.05%; versus Veh
Procedure: as §1, §2

Question: For `CCC(N)C(=O)NCCc1ccc(-c2ccc(C(F)(F)F)cc2)cc1.Cl` (racemic) [Compound 76, (R)/(S)-2-amino-N-(2-(4′-(trifluoromethyl)-[1,1′-biphenyl]-4-yl)ethyl)butanamide hydrochloride], which “Relative amount of IL-6 compared to LPS induction (%)” value (“Relative amount … (%)” below) ([1]; LPS 1 μg/mL 24 h) is on record?
Answer: 9.58%

Question: With `CCCC(NC)C(=O)NCCc1ccc(-c2ccc(C(F)(F)F)cc2)cc1.Cl` (racemic) [Compound 87, (R)/(S)-2-(methylamino)-N-(2-(4′-(trifluoromethyl)-[1,1′-biphenyl]-4-yl)ethyl)pentanamide hydrochloride] as the compound, how does the “Relative amount … (%)” value ([1]; LPS 1 μg/mL 24 h) read?
Answer: 24%

Question: Which “Relative amount … (%)” value ([1]; LPS 1 μg/mL 24 h) does the source give for `CCCC(N)C(=O)NCCc1ccc(-c2ccc(F)c(F)c2)cc1.Cl` (racemic) [Compound 82, (R)/(S)-2-amino-N-(2-(3′,4′-difluoro-[1,1′-biphenyl]-4-yl)ethyl)pentanamide hydrochloride] here?
Answer: 3%

Question: Which “Relative amount … (%)” value ([1]; LPS 1 μg/mL 24 h) does the source give for `CCCC(N)C(=O)NCc1ccc(-c2ccc(OC(F)(F)F)cc2)cc1.Cl` (racemic) [Compound 49, (R)/(S)-2-amino-N-((4′-(trifluoromethoxy)-[1,1′-biphenyl]-4-yl)methyl)pentanamide hydrochloride] here?
Answer: 50%

Question: With `CCCC(N)C(=O)Nc1ccc(-c2ccc(OC(F)(F)F)cc2)cc1.Cl` (racemic) [Compound 32, (R)/(S)-2-amino-N-(4′-(trifluoromethoxy)-[1,1′-biphenyl]-4-yl)pentanamide hydrochloride] as the compound, how does the “Relative amount … (%)” value ([1]; LPS 1 μg/mL 24 h) read?
Answer: 16%

Question: For `CCCC(NC)C(=O)NCc1ccc(-c2ccc(C(F)(F)F)cc2)cc1.Cl` (racemic) [Compound 52, (R)/(S)-2-(methylamino)-N-((4′-(trifluoromethyl)-[1,1′-biphenyl]-4-yl)methyl)pentanamide hydrochloride], which “Relative amount … (%)” value ([1]; LPS 1 μg/mL 24 h) is on record?
Answer: 13%

Question: How did the “IL-6” value ([1]; Table 1, LPS 1 μg/mL 24 h, compound 77 at 8 μg/ml, FK506 concentration not given) turn out when `C=CC[C@@H]1/C=C(\C)C[C@H](C)C[C@H](OC)[C@H]2O[C@@](O)(C(=O)C(=O)N3CCCC[C@H]3C(=O)O[C@H](/C(C)=C/[C@@H]3CC[C@@H](O)[C@H](OC)C3)[C@H](C)[C@@H](O)CC1=O)[C@H](C)C[C@@H]2OC` [FK506, FK-506 monohydrate, reference compound] was run?
Answer: 656.86 pg/mL

Question: And the “IL-6 (%)” value ([1]; Table 1, relative to IL-6 production induced by LPS (100%), compound 77 at 8 μg/ml, FK506 concentration not given)?
Answer: 45.31%

Question: How did the “Relative amount … (%)” value ([1]; LPS 1 μg/mL 24 h) turn out when `CCCC(C(=O)NCc1ccc(-c2ccc(Cl)c(Cl)c2)cc1)N(C)C` (racemic) [Compound 53, (R)/(S)—N-((3′,4′-dichloro-[1,1′-biphenyl]-4-yl)methyl)-2-(dimethylamino)pentanamide] was run?
Answer: 5%

Question: Which “Relative amount … (%)” value ([1]; LPS 1 μg/mL 24 h) does the source give for `CCC(NC)C(=O)NCCc1ccc(-c2ccc(Cl)c(Cl)c2)cc1.Cl` (racemic) [Compound 83, (R)/(S)—N-(2-(3′,4′-dichloro-[1,1′-biphenyl]-4-yl)ethyl)-2-(methylamino)butanamide hydrochloride] here?
Answer: 9%

Question: Which “Relative amount … (%)” value ([1]; LPS 1 μg/mL 24 h) does the source give for `CCCC(N)C(=O)NCc1ccc(-c2ccc(Cl)c(Cl)c2)cc1.Cl` (racemic) [Compound 45, (R)/(S)-2-amino-N-((3′,4′-dichloro-[1,1′-biphenyl]-4-yl)methyl)pentanamide hydrochloride] here?
Answer: 3%

Question: How did the avg ([1]; compound at 2 μg/ml) turn out when `CCCC(NC)C(=O)NCc1ccc(-c2ccc(Cl)c(Cl)c2)cc1.Cl` (racemic) [Compound 51, (R)/(S)—N-((3′,4′-dichloro-[1,1′-biphenyl]-4-yl)methyl)-2-(methylamino)pentanamide hydrochloride] was run?
Answer: 2615.50

Question: And the avg ([1]; compound at 4 μg/ml)?
Answer: 586.95

Question: What about the 1 well ([1]; compound at 2 μg/ml) of the same compound?
Answer: 2815.00

Question: And the 1 well ([1]; compound at 4 μg/ml)?
Answer: 669.30

Question: What about the 2 well ([1]; compound at 2 μg/ml) of the same compound?
Answer: 2416.00

Question: What about the 2 well ([1]; compound at 4 μg/ml) of the same compound?
Answer: 504.60

Question: What about the “avg (%)” value ([1]; compound at 2 μg/ml) of the same compound?
Answer: 56.11%

Question: What about the “avg (%)” value ([1]; compound at 4 μg/ml) of the same compound?
Answer: 12.59%

Question: What about the “skin lesions (pictures, visual)” value [2] of the same compound?
Answer: visually improved

Question: And the “PASI Score” value [2]?
Answer: significantly decreased

Question: And the “pruritus (scratching counts, 30 minutes)” value [3]?
Answer: tendency to decrease pruritus

Question: And the “psoriasis-related cytokine genes (IL-17A, IL-17F, IL-23A (p19), IL-12A (p35), IL-12B (p40), IL-1β) expression” value [4]?
Answer: significantly reduced

Question: `CCCC(N)C(=O)NCCc1ccc(-c2ccc(OC(F)(F)F)cc2)cc1.Cl` (racemic) [Compound 80, (R)/(S)-2-amino-N-(2-(4′-(trifluoromethoxy)-[1,1′-biphenyl]-4-yl)ethyl)pentanamide hydrochloride] was tested. Which “Relative amount … (%)” value ([1]; LPS 1 μg/mL 24 h) did it give?
Answer: 6%

Question: For `CCC(=O)OCC(=O)[C@@]1(OC(=O)CC)[C@@H](C)C[C@H]2[C@@H]3CCC4=CC(=O)C=C[C@]4(C)[C@@]3(F)[C@@H](O)C[C@@]21C` [Beta, Betamethasone dipropionate, reference compound], which “skin lesions (pictures, visual)” value [2] is on record?
Answer: visually improved

Question: And the “PASI Score” value [2]?
Answer: significantly decreased

Question: What about the “pruritus (scratching counts, 30 minutes)” value [3] of the same compound?
Answer: significant decrease

Question: And the “psoriasis-related cytokine genes (IL-17A, IL-17F, IL-23A (p19), IL-12A (p35), IL-12B (p40), IL-1β) expression” value [4]?
Answer: significantly reduced

Question: With `CCCC(N)C(=O)NCc1ccc(-c2ccc(C(F)(F)F)cc2)cc1.Cl` (racemic) [Compound 47, (R)/(S)-2-amino-N-((4′-(trifluoromethyl)-[1,1′-biphenyl]-4-yl)methyl)pentanamide hydrochloride] as the compound, how does the “Relative amount … (%)” value ([1]; LPS 1 μg/mL 24 h) read?
Answer: 12%

Question: With `CCCC(C(=O)Nc1ccc(-c2ccc(Cl)c(Cl)c2)cc1)N(C)C` (racemic) [Compound 36, (R)/(S)—N-(3′,4′-dichloro-[1,1′-biphenyl]-4-yl)-2-(dimethylamino)pentanamide] as the compound, how does the “Relative amount … (%)” value ([1]; LPS 1 μg/mL 24 h) read?
Answer: 9%

Question: How did the “Relative amount … (%)” value ([1]; LPS 1 μg/mL 24 h) turn out when `CCCCC(N)C(=O)NCc1ccc(-c2ccc(OC(F)(F)F)cc2)cc1.Cl` (racemic) [Compound 50, (R)/(S)-2-amino-N-((4′-(trifluoromethoxy)-[1,1′-biphenyl]-4-yl)methyl)hexanamide hydrochloride] was run?
Answer: 68%

Question: With `CCCCC(N)C(=O)NCc1ccc(-c2ccc(C(F)(F)F)cc2)cc1.Cl` (racemic) [Compound 48, (R)/(S)-2-amino-N-((4′-(trifluoromethyl)-[1,1′-biphenyl]-4-yl)methyl)hexanamide hydrochloride] as the compound, how does the “Relative amount … (%)” value ([1]; LPS 1 μg/mL 24 h) read?
Answer: 67%
